For assay [1], the system named is tankyrase 1/2. Kind of assay: Measurement of cellular inhibition of tankyrase (Axin2 level, Luminex based assay, DLD1 cells). The conditions noted are these: 24 hours, increase of Axin2 level, read-out: EC50 tankyrase 1/2 (cell assay). Here is the method:
Measurement of Cellular Inhibition of Tankyrase
Since Tankyrases have been described to modulate cellular level of Axin2 (Huang et al., 2009; Nature) the increase of Axin2 level is used as read-out for determination of cellular inhibition of Tankyrases in a Luminex based assay.
Cells of the colon carcinoma cell line DLD1 are plated in 96 well plates with 1.5×10^4 cells per well. Next day, cells are treated with a serial-dilution of test compound in seven steps as triplicates with a final DMSO concentration of 0.3%. After 24 hours, cells are lysed in lysis buffer (20 mM Tris/HCl pH 8.0, 150 mM NaCl, 1% NP40, 10% Glycerol) and lysates are cleared by centrifugation through a 96 well filter plate (0.65 μm). Axin2 protein is isolated from cell lysates by incubation with a monoclonal anti-Axin2 antibody (R&D Systems #MAB6078) that is bound to fluorescent carboxybeads. Then, bound Axin2 is specifically detected with a polyclonal anti-Axin2 antibody (Cell Signaling #2151) and an appropriate PE-fluorescent secondary antibody. The amount of isolated Axin2 protein is determined in a Luminex^200 machine (Luminex Corporation) according to the manufacturer's instruction by counting 100 events per well. […] For analysis, the obtained data were normalized against the untreated solvent control and fitted for determination of the EC50 values using the Assay Explorer software (Accelrys).

For assay [2], the target named is T1, GST-tagged Tankyrase-2 (873-1166 aa) (Homo sapiens, UniProt Q9H2K2).
T1 construct: GST-tagged Tankyrase-2 (873-1166 aa)
T1 sequence (Q9H2K2 873-1166): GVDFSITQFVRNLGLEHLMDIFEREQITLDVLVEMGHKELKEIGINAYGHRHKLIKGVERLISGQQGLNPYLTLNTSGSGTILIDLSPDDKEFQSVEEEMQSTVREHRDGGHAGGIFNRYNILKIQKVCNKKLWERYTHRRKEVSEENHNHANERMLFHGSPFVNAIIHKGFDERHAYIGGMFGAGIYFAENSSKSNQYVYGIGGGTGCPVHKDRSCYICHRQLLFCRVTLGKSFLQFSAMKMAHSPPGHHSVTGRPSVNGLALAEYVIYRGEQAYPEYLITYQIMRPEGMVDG
Kind of assay: Tankyrase 2 autoparsylation assay (HTRF enzyme assay). The class given is biochemical. For orientation: In TR-FRET formats the signal depends on donor and acceptor labels being close together.

Assay [3] has as its target T2, GST-tagged Tnks-1 (1023-1327 aa) (Homo sapiens, UniProt O95271).
T2 construct: GST-tagged Tnks-1 (1023-1327 aa, prepared in-house); made in house
Kind of assay: TNKS 1 activity ELISA (autoparsylation assay). The class given is biochemical. The conditions noted are these: read-out: IC50 tankyrase 1 (ELISA assay). A general note: In an ELISA, binding on a coated surface is turned into a signal by an enzyme label.

For assay [4], the target named is T3, GST-tagged Tnks-2 (873-1166 aa) (Homo sapiens, UniProt Q9H2K2).
T3 construct: GST-tagged Tnks-2 (873-1166 aa, prepared in-house); made in house
T3 sequence (Q9H2K2 873-1166): as above
Put plainly: TNKS 2 activity ELISA (autoparsylation assay). The class given is biochemical. The conditions noted are these: read-out: IC50 tankyrase 2 (ELISA assay).

This passage reports EC50 and IC50 results from patent US9339503B2, “Tetrahydro-quinazolinone derivatives as TANK and PARP inhibitors” (MERCK PATENT GMBH, priority 2012, dated 2016).

The structures appear in SMILES notation.

T2 sequence (O95271 1023-1327): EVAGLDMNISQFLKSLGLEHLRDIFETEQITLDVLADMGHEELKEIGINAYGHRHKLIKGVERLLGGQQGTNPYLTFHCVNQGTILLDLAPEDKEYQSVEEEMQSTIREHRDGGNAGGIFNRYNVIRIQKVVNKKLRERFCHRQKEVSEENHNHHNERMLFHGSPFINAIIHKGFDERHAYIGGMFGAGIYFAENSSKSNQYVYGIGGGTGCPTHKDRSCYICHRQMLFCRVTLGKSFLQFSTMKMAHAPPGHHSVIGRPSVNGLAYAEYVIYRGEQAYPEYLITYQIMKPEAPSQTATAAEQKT

In general, IC50 refers to the point on the concentration scale where inhibition reaches its midpoint. As to `COc1ccc(N2CCN(c3nc4c(c(=O)[nH]3)CCCC4)CC2)cc1` [Compound A3, 2-[4-(4-methoxy-phenyl)-piperazin-1-yl]-5,6,7,8-tetrahydro-3H-quinazolin-4-one], the EC50 in assay [1] is 300 to 3000 nM. Also, the results for the concentration for half-maximal inhibition (IC50) in assay [2], in assay [3] and in assay [4] were 300 to 3000 nM, < 300 nM and < 300 nM, respectively.
For `O=c1[nH]c(N2CCN(c3ccccc3Cl)CC2)nc2c1CCCC2` [Compound A9, 2-[4-(2-Chlorophenyl)piperazin-1-yl]-5,6,7,8-tetrahydro-3H-quinazolin-4-one], the EC50 in assay [1] is 300 to 3000 nM. For the same compound, the half-maximal inhibitory concentration (IC50) in assay [2] was 300 to 3000 nM; in assay [3] it was < 300 nM; in assay [4] it was < 300 nM.
Regarding `O=c1[nH]c(N2CCN(c3ccc(F)cc3)CC2)nc2c1CCCC2` [Compound A6, 2-[4-(4-Fluorophenyl)piperazin-1-yl]-5,6,7,8-tetrahydro-3H-quinazolin-4-one], the EC50 in assay [1] was 300 to 3000 nM. Moreover, the IC50 in assay [2] is 300 to 3000 nM; in assay [3] it was < 300 nM; in assay [4] it was < 300 nM.
With `COc1cc(F)ccc1N1CCN(c2nc3c(c(=O)[nH]2)CCCC3)CC1` [Compound A36, 2-[4-(4-fluoro-2-methoxy-phenyl)piperazin-1-yl]-5,6,7,8-tetrahydro-3H-quinazolin-4-one], in assay [1], the EC50 lay within 300 to 3000 nM. Besides, the IC50 in assay [2] was 300 to 3000 nM; in assay [3], < 300 nM; in assay [4], < 300 nM.
On to `COc1ccccc1N1CCN(c2nc3c(c(=O)[nH]2)CCCC3)CC1` [Compound A12, 2-[4-(2-Methoxyphenyl)piperazin-1-yl]-5,6,7,8-tetrahydro-3H-quinazolin-4-one], for which the EC50 in assay [1] was 300 to 3000 nM. Further, the figures for the concentration for half-maximal inhibition (IC50) in assay [2], in assay [3] and in assay [4] were 300 to 3000 nM, < 300 nM and < 300 nM, respectively.
On to `COc1cccc(N2CCN(c3nc4c(c(=O)[nH]3)CCCC4)CC2)c1` [Compound A7, 2-[4-(3-Methoxyphenyl)piperazin-1-yl]-5,6,7,8-tetrahydro-3H-quinazolin-4-one], for which the EC50 in assay [1] is 300 to 3000 nM. The concentration for half-maximal inhibition (IC50) in assay [2] is 300 to 3000 nM; in assay [3], < 300 nM; in assay [4], < 300 nM.
For the compound `N#Cc1ccccc1N1CCN(c2nc3c(c(=O)[nH]2)CCCC3)CC1` [Compound A33, 2-[4-(4-oxo-5,6,7,8-tetrahydro-3H-quinazolin-2-yl)piperazin-1-yl]benzonitrile], in assay [1], the EC50 lay within 300 to 3000 nM. In addition, the figures for the IC50 in assay [2], in assay [3] and in assay [4] were 300 to 3000 nM, < 300 nM and < 300 nM, respectively.
